Reference: ChEMBL document CHEMBL3885881, “DrugMatrix”

Species on record: Rattus norvegicus
Test: DrugMatrix - Regimen: Daily Repeat
Format: toxicity, organism-based, Sprague-Dawley
Design: regimen Daily Repeat, gender Male, age 6-8 weeks
Settings: in vivo, po, route oral GAVAGE, vehicle .5 % CMC; for BASOPHIL / EOSINOPHIL / ERYTHROCYTE COUNT / HEMATOCRIT / HEMOGLOBIN / LEUKOCYTE COUNT / LYMPHOCYTE / MEAN CORPUSCULAR HEMOGLOBIN / MEAN CORPUSCULAR HEMOGLOBIN CONCENTRATION / MEAN CORPUSCULAR VOLUME / MONOCYTE / NEUTROPHIL / PLATELET COUNT: tissue Blood; for ALANINE AMINOTRANSFERASE / ALBUMIN / ALKALINE PHOSPHATASE / ASPARTATE AMINOTRANSFERASE / BLOOD UREA NITROGEN / CARBON DIOXIDE / CHLORIDE / CHOLESTEROL / CREATINE PHOSPHOKINASE / CREATININE / GLUCOSE / LACTATE DEHYDROGENASE / LIPASE / PHOSPHORUS / POTASSIUM / SODIUM / TOTAL BILIRUBIN / TOTAL PROTEIN / URIC ACID: tissue Plasma
[1] = 0 mg/kg, 72 h, dose level Control, time 3 day
[2] = 0 mg/kg, 120 h, dose level Control, time 5 day
[3] = 47 mg/kg, 72 h, dose level Low, time 3 day
[4] = 47 mg/kg, 120 h, dose level Low, time 5 day
[5] = 1200 mg/kg, 72 h, dose level High, time 3 day
[6] = 1200 mg/kg, 120 h, dose level High, time 5 day

Nc1ccn([C@H]2CC[C@@H](CO)O2)c(=O)n1 [ZALCITABINE]
BASOPHIL [1]: 0.17%
EOSINOPHIL [1]: 0.83%
ERYTHROCYTE COUNT [1]: 7.2 x10E6/uL
HEMATOCRIT [1]: 43.13%
HEMOGLOBIN [1]: 14.63 G/DL
LEUKOCYTE COUNT [1]: 9.05 x10E3/uL
LYMPHOCYTE [1]: 75.17%
MEAN CORPUSCULAR HEMOGLOBIN [1]: 20.35 pg
MEAN CORPUSCULAR HEMOGLOBIN CONCENTRATION [1]: 33.95 G/DL
MEAN CORPUSCULAR VOLUME [1]: 59.93 fL
MONOCYTE [1]: 2.83%
NEUTROPHIL [1]: 21.17%
PLATELET COUNT [1]: 1093.17 x10E3/uL
ALANINE AMINOTRANSFERASE [1]: 49.17 u/L
ALBUMIN [1]: 4.33 G/DL
ALKALINE PHOSPHATASE [1]: 366.5 u/L
ASPARTATE AMINOTRANSFERASE [1]: 86.33 u/L
BLOOD UREA NITROGEN [1]: 17 mg/dL
CARBON DIOXIDE [1]: 24.17 mmol/L
CHLORIDE [1]: 102.83 MEQ/L
CHOLESTEROL [1]: 78.33 mg/dL
CREATINE PHOSPHOKINASE [1]: 320.83 u/L
CREATININE [1]: 0.3 mg/dL
GLUCOSE [1]: 140.83 mg/dL
LACTATE DEHYDROGENASE [1]: 210 u/L
LIPASE [1]: 9.33 u/L
PHOSPHORUS [1]: 9.12 mg/dL
POTASSIUM [1]: 5.65 MEQ/L
SODIUM [1]: 144.17 MEQ/L
TOTAL BILIRUBIN [1]: 0.1 mg/dL
TOTAL PROTEIN [1]: 6.3 G/DL
URIC ACID [1]: 1.03 mg/dL
BASOPHIL [2]: 0.17%
EOSINOPHIL [2]: 1%
ERYTHROCYTE COUNT [2]: 7.02 x10E6/uL
HEMATOCRIT [2]: 43.12%
HEMOGLOBIN [2]: 14.18 G/DL
LEUKOCYTE COUNT [2]: 9.63 x10E3/uL
LYMPHOCYTE [2]: 72%
MEAN CORPUSCULAR HEMOGLOBIN [2]: 20.25 pg
MEAN CORPUSCULAR HEMOGLOBIN CONCENTRATION [2]: 32.95 G/DL
MEAN CORPUSCULAR VOLUME [2]: 61.43 fL
MONOCYTE [2]: 2.67%
NEUTROPHIL [2]: 24.5%
PLATELET COUNT [2]: 1028.5 x10E3/uL
ALANINE AMINOTRANSFERASE [2]: 42.5 u/L
ALBUMIN [2]: 4.2 G/DL
ALKALINE PHOSPHATASE [2]: 300.33 u/L
ASPARTATE AMINOTRANSFERASE [2]: 87.67 u/L
BLOOD UREA NITROGEN [2]: 17 mg/dL
CARBON DIOXIDE [2]: 24.33 mmol/L
CHLORIDE [2]: 99 MEQ/L
CHOLESTEROL [2]: 70.67 mg/dL
CREATINE PHOSPHOKINASE [2]: 891.33 u/L
CREATININE [2]: 0.3 mg/dL
GLUCOSE [2]: 139.67 mg/dL
LACTATE DEHYDROGENASE [2]: 289.83 u/L
LIPASE [2]: 8.83 u/L
PHOSPHORUS [2]: 9.5 mg/dL
POTASSIUM [2]: 5.55 MEQ/L
SODIUM [2]: 139 MEQ/L
TOTAL BILIRUBIN [2]: 0.0833 mg/dL
TOTAL PROTEIN [2]: 6.1 G/DL
URIC ACID [2]: 0.98 mg/dL
BASOPHIL [3]: 0.33%
EOSINOPHIL [3]: 1.67%
ERYTHROCYTE COUNT [3]: 7.03 x10E6/uL
HEMATOCRIT [3]: 42.67%
HEMOGLOBIN [3]: 14.33 G/DL
LEUKOCYTE COUNT [3]: 10.43 x10E3/uL
LYMPHOCYTE [3]: 70.67%
MEAN CORPUSCULAR HEMOGLOBIN [3]: 20.4 pg
MEAN CORPUSCULAR HEMOGLOBIN CONCENTRATION [3]: 33.57 G/DL
MEAN CORPUSCULAR VOLUME [3]: 60.7 fL
MONOCYTE [3]: 2.33%
NEUTROPHIL [3]: 25%
PLATELET COUNT [3]: 1049.33 x10E3/uL
ALANINE AMINOTRANSFERASE [3]: 49.33 u/L
ALBUMIN [3]: 4.27 G/DL
ALKALINE PHOSPHATASE [3]: 380.5 u/L
ASPARTATE AMINOTRANSFERASE [3]: 78.67 u/L
BLOOD UREA NITROGEN [3]: 18.33 mg/dL
CARBON DIOXIDE [3]: 22.33 mmol/L
CHLORIDE [3]: 101 MEQ/L
CHOLESTEROL [3]: 74.67 mg/dL
CREATINE PHOSPHOKINASE [3]: 442.33 u/L
CREATININE [3]: 0.27 mg/dL
GLUCOSE [3]: 147 mg/dL
LACTATE DEHYDROGENASE [3]: 216.67 u/L
LIPASE [3]: 9 u/L
PHOSPHORUS [3]: 9.3 mg/dL
POTASSIUM [3]: 5.95 MEQ/L
SODIUM [3]: 143.67 MEQ/L
TOTAL BILIRUBIN [3]: 0.1 mg/dL
TOTAL PROTEIN [3]: 6.27 G/DL
URIC ACID [3]: 0.87 mg/dL
BASOPHIL [4]: 0.33%
EOSINOPHIL [4]: 1%
ERYTHROCYTE COUNT [4]: 7.41 x10E6/uL
HEMATOCRIT [4]: 44.03%
HEMOGLOBIN [4]: 14.73 G/DL
LEUKOCYTE COUNT [4]: 11.23 x10E3/uL
LYMPHOCYTE [4]: 81.67%
MEAN CORPUSCULAR HEMOGLOBIN [4]: 19.83 pg
MEAN CORPUSCULAR HEMOGLOBIN CONCENTRATION [4]: 33.4 G/DL
MEAN CORPUSCULAR VOLUME [4]: 59.43 fL
MONOCYTE [4]: 2.33%
NEUTROPHIL [4]: 15.67%
PLATELET COUNT [4]: 1184 x10E3/uL
ALANINE AMINOTRANSFERASE [4]: 46 u/L
ALBUMIN [4]: 4.43 G/DL
ALKALINE PHOSPHATASE [4]: 323 u/L
ASPARTATE AMINOTRANSFERASE [4]: 95.67 u/L
BLOOD UREA NITROGEN [4]: 15.67 mg/dL
CARBON DIOXIDE [4]: 22.33 mmol/L
CHLORIDE [4]: 98.33 MEQ/L
CHOLESTEROL [4]: 68 mg/dL
CREATINE PHOSPHOKINASE [4]: 672 u/L
CREATININE [4]: 0.3 mg/dL
GLUCOSE [4]: 129 mg/dL
LACTATE DEHYDROGENASE [4]: 673.67 u/L
LIPASE [4]: 8.67 u/L
PHOSPHORUS [4]: 9.57 mg/dL
POTASSIUM [4]: 5.77 MEQ/L
SODIUM [4]: 140.67 MEQ/L
TOTAL BILIRUBIN [4]: 0.1 mg/dL
TOTAL PROTEIN [4]: 6.4 G/DL
URIC ACID [4]: 1.23 mg/dL
BASOPHIL [5]: 0.33%
EOSINOPHIL [5]: 1%
ERYTHROCYTE COUNT [5]: 7.16 x10E6/uL
HEMATOCRIT [5]: 42.4%
HEMOGLOBIN [5]: 14.27 G/DL
LEUKOCYTE COUNT [5]: 9.77 x10E3/uL
LYMPHOCYTE [5]: 80.33%
MEAN CORPUSCULAR HEMOGLOBIN [5]: 20 pg
MEAN CORPUSCULAR HEMOGLOBIN CONCENTRATION [5]: 33.73 G/DL
MEAN CORPUSCULAR VOLUME [5]: 59.27 fL
MONOCYTE [5]: 2.33%
NEUTROPHIL [5]: 16.33%
PLATELET COUNT [5]: 1274 x10E3/uL
ALANINE AMINOTRANSFERASE [5]: 63.67 u/L
ALBUMIN [5]: 4.3 G/DL
ALKALINE PHOSPHATASE [5]: 291.67 u/L
ASPARTATE AMINOTRANSFERASE [5]: 78 u/L
BLOOD UREA NITROGEN [5]: 15.33 mg/dL
CARBON DIOXIDE [5]: 22.67 mmol/L
CHLORIDE [5]: 103.67 MEQ/L
CHOLESTEROL [5]: 79 mg/dL
CREATINE PHOSPHOKINASE [5]: 509 u/L
CREATININE [5]: 0.3 mg/dL
GLUCOSE [5]: 141.33 mg/dL
LACTATE DEHYDROGENASE [5]: 255.33 u/L
LIPASE [5]: 9.33 u/L
PHOSPHORUS [5]: 10.23 mg/dL
POTASSIUM [5]: 5.83 MEQ/L
SODIUM [5]: 146.33 MEQ/L
TOTAL BILIRUBIN [5]: 0.1 mg/dL
TOTAL PROTEIN [5]: 6.17 G/DL
URIC ACID [5]: 1.33 mg/dL
BASOPHIL [6]: 0%
EOSINOPHIL [6]: 0.67%
ERYTHROCYTE COUNT [6]: 7.45 x10E6/uL
HEMATOCRIT [6]: 45%
HEMOGLOBIN [6]: 15 G/DL
LEUKOCYTE COUNT [6]: 9.43 x10E3/uL
LYMPHOCYTE [6]: 80%
MEAN CORPUSCULAR HEMOGLOBIN [6]: 20.1 pg
MEAN CORPUSCULAR HEMOGLOBIN CONCENTRATION [6]: 33.37 G/DL
MEAN CORPUSCULAR VOLUME [6]: 60.37 fL
MONOCYTE [6]: 2.33%
NEUTROPHIL [6]: 16.33%
PLATELET COUNT [6]: 957.67 x10E3/uL
ALANINE AMINOTRANSFERASE [6]: 49.33 u/L
ALBUMIN [6]: 4.1 G/DL
ALKALINE PHOSPHATASE [6]: 291.67 u/L
ASPARTATE AMINOTRANSFERASE [6]: 101.33 u/L
BLOOD UREA NITROGEN [6]: 15.33 mg/dL
CARBON DIOXIDE [6]: 22.67 mmol/L
CHLORIDE [6]: 99.67 MEQ/L
CHOLESTEROL [6]: 63.33 mg/dL
CREATINE PHOSPHOKINASE [6]: 865 u/L
CREATININE [6]: 0.3 mg/dL
GLUCOSE [6]: 138 mg/dL
LACTATE DEHYDROGENASE [6]: 744.67 u/L
LIPASE [6]: 8.33 u/L
PHOSPHORUS [6]: 9.43 mg/dL
POTASSIUM [6]: 5.67 MEQ/L
SODIUM [6]: 141 MEQ/L
TOTAL BILIRUBIN [6]: 0.1 mg/dL
TOTAL PROTEIN [6]: 6.23 G/DL
URIC ACID [6]: 0.9 mg/dL
